The values that follow are results of earlier work, collected in patent US7098029B1, “Product and method for control of obesity” (Metabolic Pharmaceuticals Limited, priority 1999, dated 2006).

This data set deals with C57B1/6J (Ob/Ob) mouse. To be noted: administration by injection; cited from earlier work.

Consider “hGH 177–191: synthetic peptide corresponding to amino acid residues 177–191 of the human growth hormone sequence (LRIVQCRSVEGSCGF)”, for which the adipose tissue mass entry is “reduce body weight gain and adipose tissue mass”; the body weight gain entry is “reduce body weight gain”.
